Molecular target: human σ1 receptor and human μ-opioid receptor
Assay: Human σ1 receptor and human μ-opioid receptor radioligand binding assays, reported on one dual scale
Design: key to μ and σ1 dual (binding expressed as Ki): +: Both Ki-μ and Ki-σ1>500 nM; ++: One Ki<500 nM while the other Ki is >=500 nM; +++: Both Ki-μ and Ki-σ1<500 nM; ++++: Both Ki-μ and Ki-σ1<100 nM
Settings: combined class for both receptors, [3H](+)-pentazocine on transfected HEK-293 membranes (σ1), [3H]-DAMGO on transfected CHO-K1 membranes (μ); for Ki: read-out: μ and σ1 dual (binding expressed as Ki)
Procedure: Human σ1 Receptor Radioligand Assay
To investigate binding properties of test compounds to human σ1 receptor, transfected HEK-293 membranes and [^3H](+)-pentazocine (Perkin Elmer, NET-1056), as the radioligand, were used. The assay was carried out with 7 μg of membrane suspension, 5 nM of [^3H](+)-pentazocine in either absence or presence of either buffer or 10 μM Haloperidol for total and non-specific binding, respectively. Binding buffer contained Tris-HCl 50 mM at pH 8. Plates were incubated at 37° C. for 120 minutes. After the incubation period, the reaction mix was then transferred to MultiScreen HTS, FC plates (Millipore), filtered and plates were washed 3 times with ice-cold 10 mM Tris-HCL (pH7.4). Filters were dried and counted at approximately 40% efficiency in a MicroBeta scintillation counter (Perkin-Elmer) using EcoScint liquid scintillation cocktail
Human μ-Opioid Receptor Radioligand Assay
To investigate binding properties of test compounds to human μ-opioid receptor, transfected CHO-K1 cell membranes and [^3H]-DAMGO (Perkin Elmer, ES-542-C), as the radioligand, were used. The assay was carried out with 20 μg of membrane suspension, 1 nM of [^3H]-DAMGO in either absence or presence of either buffer or 10 μM Naloxone for total and non-specific binding, respectively. Binding buffer contained Tris-HCl 50 mM, MgCl2 5 mM at pH 7.4. Plates were incubated at 27° C. for 60 minutes. After the incubation period, the reaction mix was then transferred to MultiScreen HTS, FC plates (Millipore), filtered and plates were washed 3 times with ice-cold 10 mM Tris-HCL (pH 7.4). Filters were dried and counted at approximately 40% efficiency in a MicroBeta scintillation counter (Perkin-Elmer) using EcoScint liquid scintillation cocktail.

| SMILES | Ki | μ and σ1 dual (binding expressed as Ki) |
| --- | --- | --- |
| CCN1CC2(CCN(CCc3ccccc3)CC2)c2ccccc2C1=O [Example 6, 2-ethyl-1′-phenethyl-2,3-dihydro-1H-spiro[isoquinoline-4,4′-piperidin]-1-one] | < 0.5 µM |  |
| O=C1c2ccccc2C2(CCN(Cc3ccccc3)CC2)CN1CCO [Example 7, 1′-Benzyl-2-(2-hydroxyethyl)-2,3-dihydro-1H-spiro[isoquinoline-4,4′-piperidin]-1-one] |  | ++ |
| O=C1c2ccccc2C2(CCN(CCc3ccccc3)CC2)CN1CCO [Example 11, 2-(2-Hydroxyethyl)-1′-phenethyl-2,3-dihydro-1H-spiro[isoquinoline-4,4′-piperidin]-1-one] |  | ++ |
| CCN1CC2(CCN(Cc3ccccc3)CC2)c2ccccc2C1=O [Example 3, 1′-Benzyl-2-ethyl-2,3-dihydro-1H-spiro[isoquinoline-4,4′-piperidin]-1-one] |  | ++ |
| CN1CC2(CCN(Cc3ccccc3)CC2)c2ccccc2C1=O [Example 2, 1′-Benzyl-2-methyl-2,3-dihydro-1H-spiro[isoquinoline-4,4′-piperidin]-1-one] |  | ++ |
| O=C1NCC2(CCN(Cc3ccccc3)CC2)c2ccccc21 [Example 1, 1′-Benzyl-2,3-dihydro-1H-spiro[isoquinoline-4,4′-piperidin]-1-one] |  | ++ |
| O=C1NCC2(CCN(CCc3ccccc3)CC2)c2ccccc21 [Example 4, 1′-Phenethyl-2,3-dihydro-1H-spiro[isoquinoline-4,4′-piperidin]-1-one] | < 0.5 µM |  |
| CC(=O)N1Cc2ccccc2C2(CCN(CCc3ccccc3)CC2)C1 [Example 10, 1-(1′-Phenethyl-1H-spiro[isoquinoline-4,4′-piperidine]-2(3H)-yl)ethanone] |  | ++ |
| c1ccc(CCN2CCC3(CC2)CNCc2ccccc23)cc1 [Example 8, 1′-Phenethyl-2,3-dihydro-1H-spiro[isoquinoline-4,4′-piperidine]] | < 0.5 µM |  |
| CN1CC2(CCN(CCc3ccccc3)CC2)c2ccccc2C1=O [Example 5, 2-Methyl-1′-phenethyl-2,3-dihydro-1H-spiro[isoquinoline-4,4′-piperidin]-1-one] | < 0.5 µM |  |
| CN1Cc2ccccc2C2(CCN(CCc3ccccc3)CC2)C1 [Example 9, 2-Methyl-1′-phenethyl-2,3-dihydro-1H-spiro[isoquinoline-4,4′-piperidine]] | < 0.5 µM |  |
